Results reported in patent publication US20250144094A1 (Erasca, Inc., priority 2021, published 2025).

Target: Recombinant human ULK1 (1-649) (Homo sapiens (Human), UniProt O75385)
Assay: ULK1 ADP Glo kinase activity assay, new method (ULKtide peptide substrate)
Conditions: 25° C., 40 minutes, read-out: ULK1 biochemical IC50
Summary of the method: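 GST-tagged human ULK1 (1-649) from Sf9 cells was reacted with ULKtide peptide and ATP for 40 min at 25 °C across 12-point compound dilutions from 10 μM. ADP formed was quantified by ADP-Glo luminescence; IC50 came from four-parameter fits relative to DMSO controls.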

Recombinant human ULK1 (1-649), sequence (O75385 1-649): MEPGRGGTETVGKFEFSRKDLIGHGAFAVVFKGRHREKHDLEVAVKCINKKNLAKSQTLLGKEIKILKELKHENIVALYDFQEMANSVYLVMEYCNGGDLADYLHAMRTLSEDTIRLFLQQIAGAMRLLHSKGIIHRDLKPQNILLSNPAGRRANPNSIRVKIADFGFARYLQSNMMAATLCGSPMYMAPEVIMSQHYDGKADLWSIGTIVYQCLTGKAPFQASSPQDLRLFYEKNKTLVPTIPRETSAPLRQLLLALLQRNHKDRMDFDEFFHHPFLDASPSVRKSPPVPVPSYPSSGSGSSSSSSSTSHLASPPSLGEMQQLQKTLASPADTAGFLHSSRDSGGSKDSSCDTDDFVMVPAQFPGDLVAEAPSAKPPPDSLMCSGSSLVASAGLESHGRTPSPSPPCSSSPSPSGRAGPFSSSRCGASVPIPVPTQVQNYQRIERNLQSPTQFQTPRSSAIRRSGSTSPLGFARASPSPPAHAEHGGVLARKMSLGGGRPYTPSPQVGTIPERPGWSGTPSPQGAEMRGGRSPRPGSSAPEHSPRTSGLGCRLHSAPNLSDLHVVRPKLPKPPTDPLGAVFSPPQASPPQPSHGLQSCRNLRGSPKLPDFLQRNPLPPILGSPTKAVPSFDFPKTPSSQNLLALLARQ

| IC50 [nM] | SMILES |
| --- | --- |
| ≤ 5 | O=C1c2sc(-c3nc(Nc4ccc(N5CC6(CNC6)C5)cc4C4CC4)ncc3C(F)(F)F)cc2S(=O)(=O)CCN1C1COC1 [Example 377, 7-(2-((2-Cyclopropyl-4-(2,6-diazaspiro[3.3]heptan-2-yl)phenyl)amino)-5-(trifluoromethyl)pyrimidin-4-yl)-4-(oxetan-3-yl)-3,4-dihydrothieno[2,3-f][1,4]thiazepin-5(2H)-one 1,1-dioxide] |
| ≤ 5 | C[C@@H]1CN(c2ccc(Nc3ncc(C(F)(F)F)c(-c4cc5c(s4)C(=O)N(C)CCS5(=O)=O)n3)c(C3CC3)c2)CCN1C [Example 378, (R)-7-(2-((2-cyclopropyl-4-(3,4-dimethylpiperazin-1-yl)phenyl)amino)-5-(trifluoromethyl)pyrimidin-4-yl)-4-methyl-3,4-dihydrothieno[2,3-f][1,4]thiazepin-5(2H)-one 1,1-dioxide] |
| ≤ 5 | CN1CCS(=O)(=O)c2cc(-c3nc(Nc4ccc(N5C[C@H]6C[C@@H]5CN6)cc4C4CC4)ncc3C(F)(F)F)sc2C1=O [Example 379, 7-(2-((4-((1R,4R)-2,5-diazabicyclo[2.2.1]heptan-2-yl)-2-cyclopropylphenyl)amino)-5-(trifluoromethyl)pyrimidin-4-yl)-4-methyl-3,4-dihydrothieno[2,3-f][1,4]thiazepin-5(2H)-one 1,1-dioxide] |
| ≤ 5 | C[C@H]1CN(c2ccc(Nc3ncc(C(F)(F)F)c(-c4cc5c(s4)C(=O)N(C)CCS5(=O)=O)n3)c(C3CC3)c2)CCN1 [Example 380, (S)-7-(2-((2-cyclopropyl-4-(3-methylpiperazin-1-yl)phenyl)amino)-5-(trifluoromethyl)pyrimidin-4-yl)-4-methyl-3,4-dihydrothieno[2,3-f][1,4]thiazepin-5(2H)-one 1,1-dioxide] |
| ≤ 5 | CN1CCS(=O)(=O)c2cc(-c3nc(Nc4cnc(N5C[C@H]6C[C@@H]5CN6)cc4C4CC4)ncc3C(F)(F)F)sc2C1=O [Example 382, 7-(2-((6-((1R,4R)-2,5-diazabicyclo[2.2.1]heptan-2-yl)-4-cyclopropylpyridin-3-yl)amino)-5-(trifluoromethyl)pyrimidin-4-yl)-4-methyl-3,4-dihydrothieno[2,3-f][1,4]thiazepin-5(2H)-one 1,1-dioxide] |
| ≤ 5 | CCc1cc(N2CCN[C@H](C)C2)ccc1Nc1ncc(C(F)(F)F)c(-c2cc3c(s2)C(=O)N(C2COC2)CCS3(=O)=O)n1 [Example 406, (R)-7-(2-((2-ethyl-4-(3-methylpiperazin-1-yl)phenyl)amino)-5-(trifluoromethyl)pyrimidin-4-yl)-4-(oxetan-3-yl)-3,4-dihydrothieno[2,3-f][1,4]thiazepin-5(2H)-one 1,1-dioxide] |
| ≤ 5 | CCc1cc(N2CCN[C@@H](CO)C2)ccc1Nc1ncc(C(F)(F)F)c(-c2cc3c(s2)C(=O)N(C2CC2)CCS3(=O)=O)n1 [Example 407, (R)-4-cyclopropyl-7-(2-((2-ethyl-4-(3-(hydroxymethyl)piperazin-1-yl)phenyl)amino)-5-(trifluoromethyl)pyrimidin-4-yl)-3,4-dihydrothieno[2,3-f][1,4]thiazepin-5(2H)-one 1,1-dioxide] |

| SMILES | IC50 [nM] |
| --- | --- |
| CN1CCS(=O)(=O)c2cc(-c3nc(Nc4cnc(N5CC6CC(C5)N6)cc4C4CC4)ncc3C(F)(F)F)sc2C1=O [Example 383, 7-(2-((6-(3,6-diazabicyclo[3.1.1]heptan-3-yl)-4-cyclopropylpyridin-3-yl)amino)-5-(trifluoromethyl)pyrimidin-4-yl)-4-methyl-3,4-dihydrothieno[2,3-f][1,4]thiazepin-5(2H)-one 1,1-dioxide] | ≤ 5 |
| O=C1c2sc(-c3nc(Nc4cnc(N5CC6CC(C5)N6)cc4C4CC4)ncc3C(F)(F)F)cc2S(=O)(=O)CCN1C1COC1 [Example 384, 7-(2-((6-(3,6-diazabicyclo[3.1.1]heptan-3-yl)-4-cyclopropylpyridin-3-yl)amino)-5-(trifluoromethyl)pyrimidin-4-yl)-4-(oxetan-3-yl)-3,4-dihydrothieno[2,3-f][1,4]thiazepin-5(2H)-one 1,1-dioxide] | ≤ 5 |
